Test results: patent publication US20070281992A1, “COMBINATION OF GYRASE B INHIBITORS AND PROTEIN SYNTHESIS INHIBITORS AND USES THEREOF” (priority 2006, published 2007)
Like-named read-outs stand apart in the source and are kept apart here.

What was measured:
Format in all cases: cell-based
[1] = system: Linezolid-Resistant Staphylococcus aureus Isolates; test: MIC assay (NCCLS broth dilution), LRSA isolates; details: Staphylococcus aureus; for MIC: read-out: Minimal Inhibitory Concentration
Procedure: (§1) Antibiotics: novobiocin, tetracycline, minocycline, oxacillin, and vancomycin were all purchased from Sigma-Aldrich. Linezolid was obtained from Pfizer, Inc. Novobiocin/tetracycline and novobiocin/minocycline were tested in a 2.5:1 ratio to mimic the serum levels. (Vavra, J. J., 1967, Development of resistance to novobiocin, tetracycline, and novobiocin-tetracycline combinations in Staphylococcus aureus populations, J. Bacteriol 93(3):801). Compounds were tested across a concentration range consisting of 11 two-fold serial dilutions of test agent.
(§2) Stock solutions were prepared in sterile deionized water; novobiocin stock concentration was 1600 μg/mL and all other drugs stock solutions were prepared at 640 μg/mL. The stock solutions were allowed to sit at room temperature for one hour to auto-sterilize prior to use in the test. All compounds were in solution in water. The control agent was vancomycin hydrochloride, Sigma Chemical Lot # 015K0825.
(§3) The test organisms for the assay were 52 MSSA, 52 MRSA, 8 VISA, 7 VISE, and 3 LRSA isolates. Quality control strains included Staphylococcus aureus 0100 (ATCC 29213) and Enterococcus faecalis (ATCC 29212).
(§4) The MIC assay was performed according to published NCCLS guidelines. (National Committee for Clinical Laboratory Standards, Methods for Dilution Antimicrobial Susceptibility Tests for Bacteria that Grow Aerobically; Approved Standard-Sixth Edition, NCCLS Document M7-A6 [ISBN 1-56238-486-4], NCCLS, 940 West Valley Road, Suite 1400, Wayne, Pa. 19087-1898 USA, 2003). The test medium was Mueller Hinton II Broth for all organisms.

[2] = system: Unconfirmed Vancomycin-intermediate Staphylococcus epidermidis Isolates; test: MIC assay (NCCLS broth dilution), unconfirmed VISE isolates; details: for MIC: read-out: Minimal Inhibitory Concentration
Procedure: as §1, §2, §3, §4

[3] = system: Methicillin-Resistant Staphylococcus aureus Isolates; test: MIC assay (NCCLS broth dilution), MRSA clinical isolates; details: for MIC: read-out: Minimal Inhibitory Concentration
Procedure: as §1, §2, §3, §4

[4] = system: Enterococcus faecalis (ATCC 29212); test: MIC assay, quality control strain E. faecalis ATCC 29212; details: ATCC29212, E. faecalis ATCC 29212, repeat runs 22FEB06-09MAR06, combinations at 2.5:1, read-out: Minimal Inhibitory Concentration, quality control
Procedure: as §1, §2, §3, §4

[5] = system: Vancomycin-intermediate Staphylococcus epidermidis Isolates; test: MIC assay (NCCLS broth dilution), VISE isolates; details: for MIC: read-out: Minimal Inhibitory Concentration
Procedure: as §1, §2, §3, §4

[6] = system: Unconfirmed Vancomycin-intermediate Staphylococcus aureus Isolates; test: MIC assay (NCCLS broth dilution), unconfirmed VISA isolates; details: for MIC: read-out: Minimal Inhibitory Concentration
Procedure: as §1, §2, §3, §4

[7] = system: Vancomycin-intermediate Staphylococcus aureus Isolates; test: MIC assay (NCCLS broth dilution), VISA isolates; details: for MIC: read-out: Minimal Inhibitory Concentration
Procedure: as §1, §2, §3, §4

[8] = Staphylococcus aureus, 52 MRSA isolates, combinations at 2.5:1, given as NB/partner

SMILES: CC(=O)NC[C@H]1CN(c2ccc(N3CCOCC3)c(F)c2)C(=O)O1 [LZD, linezolid]
- MIC ([1]; LRSA isolate 1651, 24FEB06): 16 µg/mL
- MIC ([1]; LRSA isolate 1652, 24FEB06): 32 µg/mL
- MIC ([1]; LRSA isolate 1725, 24FEB06): 32 µg/mL
- MIC50 ([1]; 3 LRSA isolates, combinations at 2.5:1): 32 µg/mL
- MIC Range ([2]; 3 unconfirmed VISE isolates, combinations at 2.5:1): 1 to 2 µg/mL
- MIC ([2]; Staphylococcus epidermidis, Unconfirmed VISE isolate 2024, 09MAR06): 1 µg/mL
- MIC ([2]; Staphylococcus epidermidis, Unconfirmed VISE isolate 2025, 09MAR06): 1 µg/mL
- MIC ([2]; Staphylococcus epidermidis, Unconfirmed VISE isolate 2026, 03MAR06): 2 µg/mL
- MIC50 ([2]; Staphylococcus epidermidis, 3 unconfirmed VISE isolates, combinations at 2.5:1): 1 µg/mL
- MIC Range ([3]; 52 MRSA isolates, combinations at 2.5:1, given as NB/partner): 2 to 4 µg/mL
- MIC ([3]; Staphylococcus aureus, MRSA isolate 757, 24FEB06): 4 µg/mL
- MIC ([3]; Staphylococcus aureus, MRSA isolate 758, 03MAR06): 4 µg/mL
- MIC ([3]; Staphylococcus aureus, MRSA isolate 758, 24FEB06): 4 µg/mL
- MIC ([3]; Staphylococcus aureus, MRSA isolate 760, 03MAR06): 2 µg/mL
- MIC ([3]; Staphylococcus aureus, MRSA isolate 760, 24FEB06): 4 µg/mL
- MIC ([3]; Staphylococcus aureus, MRSA isolate 763, 22FEB06): 4 µg/mL
- MIC ([3]; Staphylococcus aureus, MRSA isolate 765, 22FEB06): 4 µg/mL
- MIC ([3]; Staphylococcus aureus, MRSA isolate 766, 22FEB06): 4 µg/mL
- MIC ([3]; Staphylococcus aureus, MRSA isolate 767, 22FEB06): 2 µg/mL
- MIC ([3]; Staphylococcus aureus, MRSA isolate 768, 22FEB06): 2 µg/mL
- MIC ([3]; Staphylococcus aureus, MRSA isolate 769, 22FEB06): 2 µg/mL
- MIC ([3]; Staphylococcus aureus, MRSA isolate 770, 22FEB06): 2 µg/mL
- MIC ([3]; Staphylococcus aureus, MRSA isolate 771, 22FEB06): 2 µg/mL
- MIC ([3]; Staphylococcus aureus, MRSA isolate 772, 22FEB06): 2 µg/mL
- MIC ([3]; Staphylococcus aureus, MRSA isolate 773, 24FEB06): 2 µg/mL
- MIC ([3]; Staphylococcus aureus, MRSA isolate 774, 24FEB06): 2 µg/mL
- MIC ([3]; Staphylococcus aureus, MRSA isolate 775, 24FEB06): 4 µg/mL
- MIC ([3]; Staphylococcus aureus, MRSA isolate 776, 24FEB06): 2 µg/mL
- MIC ([3]; Staphylococcus aureus, MRSA isolate 777, 24FEB06): 2 µg/mL
- MIC ([3]; Staphylococcus aureus, MRSA isolate 778, 24FEB06): 2 µg/mL
- MIC ([3]; Staphylococcus aureus, MRSA isolate 886, 24FEB06): 2 µg/mL
- MIC ([3]; Staphylococcus aureus, MRSA isolate 887, 24FEB06): 4 µg/mL
- MIC ([3]; Staphylococcus aureus, MRSA isolate 888, 24FEB06): 4 µg/mL
- MIC ([3]; Staphylococcus aureus, MRSA isolate 889, 24FEB06): 4 µg/mL
- MIC ([3]; Staphylococcus aureus, MRSA isolate 1004, 24FEB06): 4 µg/mL
- MIC ([3]; Staphylococcus aureus, MRSA isolate 1010, 22FEB06): 2 µg/mL
- MIC ([3]; Staphylococcus aureus, MRSA isolate 1012, 22FEB06): 2 µg/mL
- MIC ([3]; Staphylococcus aureus, MRSA isolate 1013, 22FEB06): 2 µg/mL
- MIC ([3]; Staphylococcus aureus, MRSA isolate 1014, 22FEB06): 2 µg/mL
- MIC ([3]; Staphylococcus aureus, MRSA isolate 1015, 22FEB06): 2 µg/mL
- MIC ([3]; Staphylococcus aureus, MRSA isolate 1016, 22FEB06): 2 µg/mL
- MIC ([3]; Staphylococcus aureus, MRSA isolate 1017, 22FEB06): 2 µg/mL
- MIC ([3]; Staphylococcus aureus, MRSA isolate 1021, 22FEB06): 2 µg/mL
- MIC ([3]; Staphylococcus aureus, MRSA isolate 1022, 22FEB06): 2 µg/mL
- MIC ([3]; Staphylococcus aureus, MRSA isolate 1023, 22FEB06): 2 µg/mL
- MIC ([3]; Staphylococcus aureus, MRSA isolate 1024, 22FEB06): 2 µg/mL
- MIC ([3]; Staphylococcus aureus, MRSA isolate 1025, 22FEB06): 2 µg/mL
- MIC ([3]; Staphylococcus aureus, MRSA isolate 1135, 22FEB06): 2 µg/mL
- MIC ([3]; Staphylococcus aureus, MRSA isolate 1136, 22FEB06): 4 µg/mL
- MIC ([3]; Staphylococcus aureus, MRSA isolate 1137, 22FEB06): 2 µg/mL
- MIC ([3]; Staphylococcus aureus, MRSA isolate 1138, 22FEB06): 4 µg/mL
- MIC ([3]; Staphylococcus aureus, MRSA isolate 1222, 03MAR06): 2 µg/mL
- MIC ([3]; Staphylococcus aureus, MRSA isolate 1222, 24FEB06): 2 µg/mL
- MIC ([3]; Staphylococcus aureus, MRSA isolate 1653, 03MAR06): 2 µg/mL
- MIC ([3]; Staphylococcus aureus, MRSA isolate 1658, 03MAR06): 2 µg/mL
- MIC ([3]; Staphylococcus aureus, MRSA isolate 1659, 03MAR06): 2 µg/mL
- MIC ([3]; Staphylococcus aureus, MRSA isolate 1661, 03MAR06): 4 µg/mL
- MIC ([3]; Staphylococcus aureus, MRSA isolate 1729, 03MAR06): 2 µg/mL
- MIC ([3]; Staphylococcus aureus, MRSA isolate 1730, 24FEB06): 4 µg/mL
- MIC ([3]; Staphylococcus aureus, MRSA isolate 2009, 24FEB06): 2 µg/mL
- MIC ([3]; Staphylococcus aureus, MRSA isolate 2010, 24FEB06): 2 µg/mL
- MIC ([3]; Staphylococcus aureus, MRSA isolate 2011, 24FEB06): 4 µg/mL
- MIC50 [3, 8]: 2 µg/mL
- MIC90 [3, 8]: 4 µg/mL
- MIC [4]: 2 µg/mL
- MIC Range ([5]; 4 VISE isolates, combinations at 2.5:1): 1 to 2 µg/mL
- MIC ([5]; Staphylococcus epidermidis, VISE isolate 2020, 09MAR06): 2 µg/mL
- MIC ([5]; Staphylococcus epidermidis, VISE isolate 2021, 09MAR06): 1 µg/mL
- MIC ([5]; Staphylococcus epidermidis, VISE isolate 2022, 03MAR06): 2 µg/mL
- MIC ([5]; Staphylococcus epidermidis, VISE isolate 2023, 03MAR06): 2 µg/mL
- MIC50 ([5]; Staphylococcus epidermidis, 4 VISE isolates, combinations at 2.5:1): 2 µg/mL
- MIC Range ([6]; 6 unconfirmed VISA isolates (vancomycin MIC 4 ug/ml), combinations at 2.5:1): 1 to 4 µg/mL
- MIC ([6]; Staphylococcus aureus, Unconfirmed VISA isolate 2013, 03MAR06): 2 µg/mL
- MIC ([6]; Staphylococcus aureus, Unconfirmed VISA isolate 2014, 03MAR06): 2 µg/mL
- MIC ([6]; Staphylococcus aureus, Unconfirmed VISA isolate 2015, 03MAR06): 1 µg/mL
- MIC ([6]; Staphylococcus aureus, Unconfirmed VISA isolate 2016, 03MAR06): 4 µg/mL
- MIC ([6]; Staphylococcus aureus, Unconfirmed VISA isolate 2017, 03MAR06): 2 µg/mL
- MIC ([6]; Staphylococcus aureus, Unconfirmed VISA isolate 2019, 03MAR06): 1 µg/mL
- MIC50 ([6]; Staphylococcus aureus, 6 unconfirmed VISA isolates (vancomycin MIC 4 ug/ml), combinations at 2.5:1): 2 µg/mL
- MIC Range ([7]; 2 VISA isolates, combinations at 2.5:1, given as NB/partner): 1 to 2 µg/mL
- MIC ([7]; Staphylococcus aureus, VISA isolate 2012, 03MAR06): 1 µg/mL
- MIC ([7]; Staphylococcus aureus, VISA isolate 2018, 03MAR06): 2 µg/mL
- MIC50 ([7]; Staphylococcus aureus, 2 VISA isolates, combinations at 2.5:1, given as NB/partner): 1 µg/mL
